# Reference: patent US20260176320A1, “MODULATORS OF G-PROTEIN COUPLED RECEPTORS” (priority 2018, published 2026)
# Like-named read-outs stand apart in the source and are kept apart here.
# Experiments:
# GLP-1R [1] = target: T1, GLP-1R (Homo sapiens, UniProt P43220); test: PathHunter β-arrestin assay; type: cell-based; details: PathHunter β-arrestin assay; read-out: β-arrestin activity EC50
# How it was run: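 Agonist concentration–response (22 points, 2-fold steps, duplicates) was run on cells plated the previous day in BSA-supplemented (0.2%) medium. Stimulation lasted 90 min at 37 °C, followed by a 3 h dark incubation with detection reagent at room temperature and a luminescence read.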
# mice = test: Glucose tolerance test (GTT); type: in vivo, mouse; details: 24 h GTT, s.c., dose range 2-5 nmol/kg, percent of vehicle
# Protocol: Freestyle Lite glucometer and strips; compounds to be tested; sterilized glucose solution 200 mg/ml.
# Compounds were diluted in PBS from the 1 mM DMSO stocks right before injection. Body weight and baseline blood glucose level for each mouse were measured. Tails were snipped using sterile scissors; blood from tails was used to measure glucose. For 0.25 h GTT, mice were fasted for 5-6 h and injected with compound subcutaneously 15 mins before glucose injection. For 4 h GTT, mice were fasted O/N for 16 h and injected with compound subcutaneously 4 h before glucose injection. For 16 h GTT, mice were injected with compound subcutaneously 16 h before glucose injection; food was removed at the same time. For 24 h GTT, mice were injected with compound subcutaneously 24 h before glucose injection; food was removed 5-6 h before glucose injection. 20% glucose in water was prepared; the solution was sterilized by 0.2 μm-filtration. An intraperitoneal injection of glucose (2 g/kg) was given to the mouse. Continued to take blood samples from the tail. Blood glucose was measured at 10, 20, 30, 40, 60, 90, and 120 minutes after glucose injection. Between each of these time points, the mouse was returned to its cage and monitored (at least 6 replicate mice were used for each time-point). The average glucose measurements were plotted as a function of time and the area under the curve (AUC) was determined.
# GLP-1R [2] = target: T1, GLP-1R; test: HitHunter cAMP assay (GLP-1R); type: cell-based; details: cAMP; for Emax: read-out: (Emax) GLP-1R; for EC50: read-out: EC50 GLP-1R/nM
# How it was run: (§1)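 Cells were resuspended in HBSS plus HEPES, IBMX (625 μM) and BSA, then dispensed with antibody at 10,000 per well. Agonists followed as 22-point twofold series, 30 min at room temperature. Antibody reagent and detection steps ran 1 h and overnight in the dark before luminescence.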
# GIP-R = target: T2, GIP-R (Homo sapiens, UniProt P48546); test: HitHunter cAMP assay (GIP-R); type: cell-based; details: cAMP; for Emax: read-out: (Emax) GIP-R; for EC50: read-out: EC50 GIP-R/nM
# T2 sequence (P48546 22-466): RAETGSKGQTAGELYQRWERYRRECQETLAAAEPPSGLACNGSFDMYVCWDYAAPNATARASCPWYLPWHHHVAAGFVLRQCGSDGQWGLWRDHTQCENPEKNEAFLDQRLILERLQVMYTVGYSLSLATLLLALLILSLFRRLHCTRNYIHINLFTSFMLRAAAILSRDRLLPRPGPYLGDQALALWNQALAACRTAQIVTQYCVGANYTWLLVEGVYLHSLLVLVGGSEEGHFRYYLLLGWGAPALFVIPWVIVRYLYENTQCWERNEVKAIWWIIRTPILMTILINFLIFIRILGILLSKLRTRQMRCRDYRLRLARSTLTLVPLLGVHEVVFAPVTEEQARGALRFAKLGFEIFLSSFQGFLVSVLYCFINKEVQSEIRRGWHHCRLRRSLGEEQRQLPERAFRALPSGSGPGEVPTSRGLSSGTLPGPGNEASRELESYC
# How it was run: as §1
# T1 sequence (P43220 24-463): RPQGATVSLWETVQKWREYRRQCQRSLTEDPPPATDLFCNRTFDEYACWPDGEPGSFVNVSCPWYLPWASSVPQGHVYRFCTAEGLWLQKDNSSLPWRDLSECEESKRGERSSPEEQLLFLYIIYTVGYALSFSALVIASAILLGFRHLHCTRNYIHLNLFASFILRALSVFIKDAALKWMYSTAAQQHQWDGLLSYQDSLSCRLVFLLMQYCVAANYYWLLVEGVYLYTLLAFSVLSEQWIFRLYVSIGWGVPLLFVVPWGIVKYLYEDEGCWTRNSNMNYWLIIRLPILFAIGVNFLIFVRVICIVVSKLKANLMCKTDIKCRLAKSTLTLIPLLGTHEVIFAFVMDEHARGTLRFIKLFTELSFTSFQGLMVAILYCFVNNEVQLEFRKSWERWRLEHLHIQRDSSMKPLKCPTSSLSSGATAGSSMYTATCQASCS
SMILES,EC50 (GLP-1R [1]),AUC score (mice),Emax (GLP-1R [2]; Table 3),EC50 (GLP-1R [2]; Table 3),Emax (GLP-1R [2]; Table 3A),EC50 (GLP-1R [2]; Table 3A),Emax (GIP-R; Table 3),EC50 (GIP-R; Table 3),Emax (GIP-R; Table 3A),EC50 (GIP-R; Table 3A)
CCCCCCCCCCCCCCCC(=O)N[C@@H](CCC(=O)NCCCC[C@H](NC(=O)[C@H](CO)NC(=O)[C@@H]1CCCN1C(=O)[C@@H]1CCCN1C(=O)[C@@H]1CCCN1C(=O)[C@H](C)NC(=O)CNC(=O)[C@H](CO)NC(=O)[C@H](CO)NC(=O)[C@@H]1CCCN1C(=O)CNC(=O)CNC(=O)[C@H](C)NC(=O)[C@H](CC(C)C)NC(=O)[C@H](CC(C)C)NC(=O)[C@H](Cc1c[nH]c2ccccc12)NC(=O)[C@H](CC(N)=O)NC(=O)[C@@H](NC(=O)[C@H](Cc1ccccc1)NC(=O)[C@H](CCC(=O)O)NC(=O)C(C)(C)NC(=O)[C@H](C)NC(=O)[C@H](C)NC(=O)[C@H](CCC(N)=O)NC(=O)[C@H](CCCCN)NC(=O)[C@H](CC(=O)O)NC(=O)[C@H](CC(C)C)NC(=O)[C@H](Cc1ccc(O)cc1)NC(=O)[C@@H](NC(=O)[C@H](CO)NC(=O)[C@H](Cc1ccc(O)cc1)NC(=O)[C@H](CC(=O)O)NC(=O)[C@H](CO)NC(=O)[C@@H](NC(=O)[C@H](Cc1ccccc1)NC(=O)[C@@H](NC(=O)CNC(=O)[C@H](CCC(=O)O)NC(=O)CNC(=O)CN1CCCCC1=O)[C@@H](C)O)[C@@H](C)O)[C@@H](C)CC)C(C)C)C(N)=O)C(=O)O [Compound 2],> 1000 nM,2 (AUC score 2 = 26-50%),99%,< 0.1 nM,99%,< 0.1 nM,46%,1 to 10 nM,46%,1 to 10 nM
CCCCCCCCCCCCCCCC(=O)N[C@@H](CCC(=O)NCCCC[C@H](NC(=O)[C@H](CO)NC(=O)[C@@H]1CCCN1C(=O)[C@@H]1CCCN1C(=O)[C@@H]1CCCN1C(=O)[C@H](C)NC(=O)CNC(=O)[C@H](CO)NC(=O)[C@H](CO)NC(=O)[C@@H]1CCCN1C(=O)CNC(=O)CNC(=O)[C@H](C)NC(=O)[C@H](CC(C)C)NC(=O)[C@H](CC(C)C)NC(=O)[C@H](Cc1c[nH]c2ccccc12)NC(=O)[C@H](CC(N)=O)NC(=O)[C@@H](NC(=O)[C@H](Cc1ccccc1)NC(=O)[C@H](CCC(=O)O)NC(=O)C(C)(C)NC(=O)[C@H](C)NC(=O)[C@H](C)NC(=O)[C@H](CCC(N)=O)NC(=O)[C@H](CCCCN)NC(=O)[C@H](CC(=O)O)NC(=O)[C@H](CC(C)C)NC(=O)[C@H](Cc1ccc(O)cc1)NC(=O)[C@@H](NC(=O)[C@H](CO)NC(=O)[C@H](Cc1ccc(O)cc1)NC(=O)[C@H](CC(=O)O)NC(=O)[C@H](CO)NC(=O)[C@@H](NC(=O)[C@H](Cc1ccccc1)NC(=O)[C@@H](NC(=O)CNC(=O)[C@H](CCC(=O)O)NC(=O)CCNC(=O)CN1CCCCC1=O)[C@@H](C)O)[C@@H](C)O)[C@@H](C)CC)C(C)C)C(N)=O)C(=O)O [Compound 5],10 to 1000 nM,2 (AUC score 2 = 26-50%),95%,< 0.1 nM,95%,< 0.1 nM,74%,1 to 10 nM,74%,1 to 10 nM
CCCCCCCCCCCCCCCC(=O)N[C@@H](CCC(=O)NCCCC[C@H](NC(=O)[C@H](CO)NC(=O)[C@@H]1CCCN1C(=O)[C@@H]1CCCN1C(=O)[C@@H]1CCCN1C(=O)[C@H](C)NC(=O)CNC(=O)[C@H](CO)NC(=O)[C@H](CO)NC(=O)[C@@H]1CCCN1C(=O)CNC(=O)CNC(=O)[C@H](C)NC(=O)[C@H](CC(C)C)NC(=O)[C@H](CC(C)C)NC(=O)[C@H](Cc1c[nH]c2ccccc12)NC(=O)[C@H](CC(N)=O)NC(=O)[C@@H](NC(=O)[C@H](Cc1ccccc1)NC(=O)[C@H](CCC(=O)O)NC(=O)C(C)(C)NC(=O)[C@H](C)NC(=O)[C@H](C)NC(=O)[C@H](CCC(N)=O)NC(=O)[C@H](CCCCN)NC(=O)[C@H](CC(=O)O)NC(=O)[C@H](CC(C)C)NC(=O)[C@H](Cc1ccc(O)cc1)NC(=O)[C@@H](NC(=O)[C@H](CO)NC(=O)[C@H](Cc1ccc(O)cc1)NC(=O)[C@H](CC(=O)O)NC(=O)[C@H](CO)NC(=O)[C@@H](NC(=O)[C@H](Cc1ccccc1)NC(=O)[C@@H](NC(=O)CNC(=O)[C@H](CCC(=O)O)NC(=O)CCCNC(=O)CN1CCCCC1=O)[C@@H](C)O)[C@@H](C)O)[C@@H](C)CC)C(C)C)C(N)=O)C(=O)O [Compound 16],< 10 nM,2 (AUC score 2 = 26-50%),97%,< 0.1 nM,97%,< 0.1 nM,22%,1 to 10 nM,22%,10 to 100 nM
CCCCCCCCCCCCCCCC(=O)N[C@@H](CCC(=O)NCCCC[C@H](NC(=O)[C@H](CO)NC(=O)[C@@H]1CCCN1C(=O)[C@@H]1CCCN1C(=O)[C@@H]1CCCN1C(=O)[C@H](C)NC(=O)CNC(=O)[C@H](CO)NC(=O)[C@H](CO)NC(=O)[C@@H]1CCCN1C(=O)CNC(=O)CNC(=O)[C@H](C)NC(=O)[C@H](CC(C)C)NC(=O)[C@H](CC(C)C)NC(=O)[C@H](Cc1c[nH]c2ccccc12)NC(=O)[C@H](CC(N)=O)NC(=O)[C@@H](NC(=O)[C@H](Cc1ccccc1)NC(=O)[C@H](CCC(=O)O)NC(=O)C(C)(C)NC(=O)[C@H](C)NC(=O)[C@H](C)NC(=O)[C@H](CCC(N)=O)NC(=O)[C@H](CCCCN)NC(=O)[C@H](CC(=O)O)NC(=O)[C@H](CC(C)C)NC(=O)[C@H](Cc1ccc(O)cc1)NC(=O)[C@@H](NC(=O)[C@H](CO)NC(=O)[C@H](Cc1ccc(O)cc1)NC(=O)[C@H](CC(=O)O)NC(=O)[C@H](CO)NC(=O)[C@@H](NC(=O)[C@H](Cc1ccccc1)NC(=O)[C@@H](NC(=O)CNC(=O)[C@H](CCC(=O)O)NC(=O)C(C)(C)CC(=O)NCCN1CCCCC1=O)[C@@H](C)O)[C@@H](C)O)[C@@H](C)CC)C(C)C)C(N)=O)C(=O)O [Compound 18],< 10 nM,2 (AUC score 2 = 26-50%),101%,< 0.1 nM,101%,< 0.1 nM,80%,0.1 to 1 nM,80%,0.1 to 1 nM
CCCCCCCCCCCCCCCC(=O)N[C@@H](CCC(=O)NCCCC[C@H](NC(=O)[C@H](CO)NC(=O)[C@@H]1CCCN1C(=O)[C@@H]1CCCN1C(=O)[C@@H]1CCCN1C(=O)[C@H](C)NC(=O)CNC(=O)[C@H](CO)NC(=O)[C@H](CO)NC(=O)[C@@H]1CCCN1C(=O)CNC(=O)CNC(=O)[C@H](C)NC(=O)[C@H](CC(C)C)NC(=O)[C@H](CC(C)C)NC(=O)[C@H](Cc1c[nH]c2ccccc12)NC(=O)[C@H](CC(N)=O)NC(=O)[C@@H](NC(=O)[C@H](Cc1ccccc1)NC(=O)[C@H](CCC(=O)O)NC(=O)C(C)(C)NC(=O)[C@H](C)NC(=O)[C@H](C)NC(=O)[C@H](CCC(N)=O)NC(=O)[C@H](CCCCN)NC(=O)[C@H](CC(=O)O)NC(=O)[C@H](CC(C)C)NC(=O)[C@H](Cc1ccc(O)cc1)NC(=O)[C@@H](NC(=O)[C@H](CO)NC(=O)[C@H](Cc1ccc(O)cc1)NC(=O)[C@H](CC(=O)O)NC(=O)[C@H](CO)NC(=O)[C@@H](NC(=O)[C@H](Cc1ccccc1)NC(=O)[C@@H](NC(=O)CNC(=O)[C@H](CCC(=O)O)NC(=O)CSCC(=O)NCCN1CCOCC1=O)[C@@H](C)O)[C@@H](C)O)[C@@H](C)CC)C(C)C)C(N)=O)C(=O)O [Compound 32],> 1000 nM,2 (AUC score 2 = 26-50%),103%,< 0.1 nM,103%,< 0.1 nM,65%,1 to 10 nM,65%,1 to 10 nM
